Measured values taken from patent US11814382B2 (FUJIAN COSUNTER PHARMACEUTICAL CO., LTD., priority 2018, dated 2023).

Key:
[1] = system: MCD-induced mouse NASH model; assay: In vivo efficacy test in MCD-induced mouse NASH model; set-up: species or system C57BL/6 male mice; conditions: dosing from week 5 of 8 weeks MCD feed, vs. model group (FIG. 13)
Procedure: SPF grade C57BL/6 male mice, 22-25 grams in weight.
MCD: methionine/choline deficient feed.
Liver Propylene Analytical Reagents: hematoxylin dyeing liquid, eosin dyeing liquid and Picro sirius dyeing liquid.
After the animals were adapted for one week in the facility, the normal control group was still fed with the normal feed, and other animals were fed with MCD feed instead. The drinking water didn't change and the feed was replaced once every 48 hours. Beginning at week 5, the remaining groups, except the normal control and model groups, were administrated with subject compound. The Experiment lasted for a total of 8 weeks. At the end of the experiment, animal liver samples were collected for histopathological analysis.

[2] = Solid stability test of crystal form A (high temperature, high humidity, strong light); assay type: physicochemical
Excerpt: The samples were respectively placed in a high-temperature, high-humidity and strong-light storage container. The samples were taken at 5 and 10 days after placing, and the test results were compared with the initial test results at 0 days.

[3] = system: CCl4-induced mouse liver fibrosis model; assay: In vivo efficacy test in CCl4-induced mouse liver fibrosis model; set-up: species or system Male C57BL/6 mice; conditions: oral gavage, day 1 to day 28 of CCl4 modeling, vs. model group (FIG. 14)
Procedure: Male C57BL/6 mice, 22-27 grams in weight, purchased from Shanghai Lingchang Biotechnology Co., Ltd.
Mice were transferred to the experimental area after one week of quarantine and adaptation. Animals were randomly divided into groups according to body weight and housed in cages at 5 mice per cage. 20% CCl4 solution with CCl4: Olive oil=1:4 was prepared by dissolving CCl4 in olive oil at a dose of 0.5 μl/g in mice. The mice of model group were orally three times a week for 4 weeks for molding, and the mice of normal control group was administrated only with the same volume of olive oil orally. The subject compounds were administered orally by oral gavage in a volume of 10 ml/kg per animal. The Day 1 of CCl4 modeling was initiated while dosing was initiated until day 28. At the end of the experiment, animal liver samples were collected for histopathological analysis.

Cc1cc(F)c(C(=O)Nc2cccc(-c3nnc4n3CCCC4)n2)cc1-n1cnc(C2CC2)c1 [Crystal form A]
Effect on liver fibrosis (liver histopathology) ([1]; 6 mg/Kg BID): significant effect on improving liver fibrosis
Effect on liver fibrosis (liver histopathology) ([1]; 60 mg/Kg BID): significant effect on improving liver fibrosis
Crystal form ([2]; High Humidity (25° C./Relative Humidity 90%, Open), Day 5): Crystal form A
Crystal form ([2]; High Humidity (25° C./Relative Humidity 90%, Open), Day 10): Crystal form A
Crystal form ([2]; High Temperature (60° C., Open), Day 5): Crystal form A
Crystal form ([2]; High Temperature (60° C., Open), Day 10): Crystal form A
Crystal form ([2]; Strong light (5000 lx, closed), Day 5): Crystal form A
Crystal form ([2]; Strong light (5000 lx, closed), Day 10): Crystal form A
Solid stability (conclusion) ([2]; high temperature, high humidity and strong light): good stability
Crystal form ([2]; initial, Day 0): Crystal form A
Effect on liver fibrosis (liver histopathology) ([3]; 3 mg/Kg BID): significant effect on improving liver fibrosis
Effect on liver fibrosis (liver histopathology) ([3]; 30 mg/Kg BID): significant effect on improving liver fibrosis
